Reference: ChEMBL document CHEMBL5724914, “Linking interpersonal differences in gut microbiota composition and drug biotransformation activity” (2024)

Key:
[1] = (§1) The drug is tested on Z-030 corresponding to mouse gut metagenome with ENA study accession number: PRJEB37062 and ENA sample accession number: ERS12561829 for biotransformation under anaerobic condition. The drug concentrations were measured over 9 timepoints collected between 0 and 24 hours of incubation by liquid-chromatography-coupled mass spectrometry (LC–MS); details: 2 µM
[2] = as §1, with “Z-021” for “Z-030”, “to” for “to mouse gut”, “ERS12561820” for “ERS12561829”; details: 2 µM
[3] = as §1, with “Z-016” for “Z-030”, “ERS12561815” for “ERS12561829”; details: 2 µM
[4] = human gut metagenome, 24 h, 2 µM
[5] = human gut metagenome, 24 h, 2 µM; remark: listed apart in the source
[6] = human gut metagenome, 24 h, 2 µM; remark: listed apart in the source
[7] = human gut metagenome, 24 h, 2 µM; remark: listed apart in the source
[8] = human gut metagenome, 24 h, 2 µM; remark: listed apart in the source
[9] = human gut metagenome, 24 h, 2 µM; remark: listed apart in the source
[10] = human gut metagenome, 24 h, 2 µM; remark: listed apart in the source
[11] = human gut metagenome, 24 h, 2 µM; remark: listed apart in the source
[12] = as §1, with “Z-007” for “Z-030”, “rat” for “mouse”, “ERS12561807” for “ERS12561829”; details: 2 µM
[13] = as §1, with “WLS-069” for “Z-030”, “human” for “mouse”, “ERS12561748” for “ERS12561829”; details: 2 µM
[14] = human gut metagenome, 24 h, 2 µM; remark: listed apart in the source
[15] = human gut metagenome, 24 h, 2 µM; remark: listed apart in the source
[16] = as §1, with “WLS-007” for “Z-030”, “human” for “mouse”, “ERS12561742” for “ERS12561829”; details: 2 µM
[17] = as §1, with “Z-001” for “Z-030”, “ERS12561801” for “ERS12561829”; details: 2 µM
[18] = as §1, with “Z-023” for “Z-030”, “to” for “to mouse gut”, “ERS12561822” for “ERS12561829”; details: 2 µM
[19] = human gut metagenome, 24 h, 2 µM; remark: listed apart in the source
[20] = as §1, with “WLS-077” for “Z-030”, “human” for “mouse”, “ERS12561750” for “ERS12561829”; details: 2 µM
Also: call rule not given here.

Row | Structure (SMILES) | Bacterial Biotransformation [1] | Bacterial Biotransformation [2] | Bacterial Biotransformation [3] | Bacterial Biotransformation [4] | Bacterial Biotransformation [5] | Bacterial Biotransformation [6] | Bacterial Biotransformation [7] | Bacterial Biotransformation [8] | Bacterial Biotransformation [9] | Bacterial Biotransformation [10] | Bacterial Biotransformation [11] | Bacterial Biotransformation [12] | Bacterial Biotransformation [13] | Bacterial Biotransformation [14] | Bacterial Biotransformation [15] | Bacterial Biotransformation [16] | Bacterial Biotransformation [17] | Bacterial Biotransformation [18] | Bacterial Biotransformation [19] | Bacterial Biotransformation [20]
1 | COc1ccccc1OCCNCC(O)COc1cccc2[nH]c3ccccc3c12 (stereo not given) [CARVEDILOL] | Compound NOT metabolized | Compound NOT metabolized | Compound NOT metabolized | Compound metabolized | Compound NOT metabolized | Compound metabolized | Compound metabolized | Compound metabolized | Compound NOT metabolized | Compound metabolized | Compound metabolized | Compound NOT metabolized | Compound metabolized | Compound NOT metabolized | Compound metabolized | Compound NOT metabolized | Compound NOT metabolized | Compound metabolized | Compound NOT metabolized | Compound metabolized
2 | CC(C)(C)NCC(O)c1cc(Cl)c(N)c(Cl)c1 (stereo not given) [CLENBUTEROL] | Compound NOT metabolized | Compound NOT metabolized | Compound NOT metabolized | Compound NOT metabolized | Compound NOT metabolized | Compound NOT metabolized | Compound NOT metabolized | Compound NOT metabolized | Compound NOT metabolized | Compound NOT metabolized | Compound NOT metabolized | Compound NOT metabolized | Compound NOT metabolized | Compound NOT metabolized | Compound NOT metabolized | Compound NOT metabolized | Compound NOT metabolized | Compound NOT metabolized | Compound NOT metabolized | Compound NOT metabolized
3 | C[N+]12CCC(CC1)C(OC(=O)C(O)(c1ccccc1)c1ccccc1)C2.[Br-] (stereo not given) [CLIDINIUM BROMIDE] | Compound NOT metabolized | Compound NOT metabolized | Compound NOT metabolized | Compound NOT metabolized | Compound NOT metabolized | Compound NOT metabolized | Compound metabolized | Compound NOT metabolized | Compound metabolized | Compound metabolized | Compound NOT metabolized | Compound NOT metabolized | Compound NOT metabolized | Compound metabolized | Compound NOT metabolized | Compound NOT metabolized | Compound metabolized | Compound metabolized | Compound NOT metabolized | Compound NOT metabolized
4 | Clc1cccc(Cl)c1N=C1NCCN1 [CLONIDINE] | Compound NOT metabolized | Compound NOT metabolized | Compound NOT metabolized | Compound NOT metabolized | Compound NOT metabolized | Compound NOT metabolized | Compound metabolized | Compound NOT metabolized | Compound NOT metabolized | Compound metabolized | Compound metabolized | Compound NOT metabolized | Compound metabolized | Compound NOT metabolized | Compound metabolized | Compound NOT metabolized | Compound metabolized | Compound NOT metabolized | Compound NOT metabolized | Compound NOT metabolized
5 | COC(=O)[C@H](c1ccccc1Cl)N1CCc2sccc2C1.O=S(=O)(O)O [CLOPIDOGREL BISULFATE] | Compound NOT metabolized | Compound metabolized | Compound metabolized | Compound metabolized | Compound NOT metabolized | Compound metabolized | Compound metabolized | Compound metabolized | Compound metabolized | Compound metabolized | Compound metabolized | Compound NOT metabolized | Compound metabolized | Compound metabolized | Compound metabolized | Compound metabolized | Compound metabolized | Compound metabolized | Compound metabolized | Compound metabolized
6 | O=P1(N(CCCl)CCCl)NCCCO1 (stereo not given) [CYCLOPHOSPHAMIDE ANHYDROUS] | Compound NOT metabolized | Compound NOT metabolized | Compound NOT metabolized | Compound NOT metabolized | Compound NOT metabolized | Compound NOT metabolized | Compound metabolized | Compound NOT metabolized | Compound NOT metabolized | Compound metabolized | Compound metabolized | Compound NOT metabolized | Compound metabolized | Compound NOT metabolized | Compound metabolized | Compound NOT metabolized | Compound NOT metabolized | Compound NOT metabolized | Compound NOT metabolized | Compound NOT metabolized
7 | Br.COc1ccc2c(c1)[C@]13CCCC[C@@H]1[C@H](C2)N(C)CC3.O [DEXTROMETHORPHAN HYDROBROMIDE] | Compound NOT metabolized | Compound metabolized | Compound NOT metabolized | Compound NOT metabolized | Compound NOT metabolized | Compound NOT metabolized | Compound metabolized | Compound metabolized | Compound NOT metabolized | Compound metabolized | Compound NOT metabolized | Compound NOT metabolized | Compound metabolized | Compound NOT metabolized | Compound metabolized | Compound NOT metabolized | Compound NOT metabolized | Compound metabolized | Compound NOT metabolized | Compound metabolized
8 | CC(=O)Nc1ccc(OC(C)=O)cc1 [DIACETAMATE] | Compound metabolized | Compound metabolized | Compound metabolized | Compound metabolized | Compound metabolized | Compound metabolized | Compound metabolized | Compound metabolized | Compound metabolized | Compound metabolized | Compound metabolized | Compound metabolized | Compound metabolized | Compound metabolized | Compound metabolized | Compound metabolized | Compound metabolized | Compound metabolized | Compound metabolized | Compound metabolized
9 | CCN(CC)CCOC(=O)C1(C2CCCCC2)CCCCC1 [DICYCLOMINE] | Compound NOT metabolized | Compound NOT metabolized | Compound NOT metabolized | Compound metabolized | Compound metabolized | Compound NOT metabolized | Compound metabolized | Compound NOT metabolized | Compound NOT metabolized | Compound metabolized | Compound metabolized | Compound NOT metabolized | Compound metabolized | Compound NOT metabolized | Compound metabolized | Compound metabolized | Compound NOT metabolized | Compound metabolized | Compound NOT metabolized | Compound NOT metabolized
